Assay results as given in PMC4941945 (Current protocols in pharmacology / editorial board, S.J. …, 2015).
Where two headings read alike, the source gives them in different places.

How the values were obtained:
sigma-1 receptor (S1R) = conditions: read-out: KI S1R, cited from earlier work
sigma-2 receptor (S2R) = conditions: read-out: KI S2R, cited from earlier work
S1R + S2R = assay: Saturation binding of [3H]-DTG in rat liver; conditions: RL membranes
S1R knockout mice = conditions: ref Fontanilla et al., 2009; cited from earlier work
[1] = ref 1 Matsumoto RR et al. (1995) EJP 280: 301-310
[2] = ref 8 Husbands SM et al (1997) J Med Chem 40:4340-4346
[3] = ref 2 Fontanilla D et al. (2009) Science 323(5916): 934-937

SMILES: CN(C)CCN(C)CCc1ccc(Cl)c(Cl)c1 [BD1047]
- Ki (sigma-1 receptor (S1R); [1]): 0.93 nM
- Ki (sigma-2 receptor (S2R); [1]): 47 nM

SMILES: O=C(OCCN1CCOCC1)C1(c2ccccc2)CCCCC1 [PRE-084]
- Ki (sigma-2 receptor (S2R); ref 6 Maurice T. et al. (1999) Br J Pharmacol 127(2): 335-342): 13100 nM

SMILES: C[C@@H]1CN(CCCn2c3ccccc3c3ccccc32)C[C@H](C)N1 [Rimcazole]
- Ki (sigma-2 receptor (S2R); [2]): 386 nM

SMILES: Cc1ccccc1NC(=N)Nc1ccccc1C [[^3H]-DTG, [^3H]-1,3-di(2-tolyl)guanidine]
- S1R + S2R Binding, Specific Binding (S1R + S2R; measured [3H]-DTG concentration 0.25 nM): 0.44 pmol/mg
- S1R + S2R Binding, Specific Binding (S1R + S2R; measured [3H]-DTG concentration 0.8 nM): 0.94 pmol/mg
- S1R + S2R Binding, Specific Binding (S1R + S2R; measured [3H]-DTG concentration 2.7 nM): 2.21 pmol/mg
- S1R + S2R Binding, Specific Binding (S1R + S2R; measured [3H]-DTG concentration 9 nM): 6.52 pmol/mg
- S1R + S2R Binding, Specific Binding (S1R + S2R; measured [3H]-DTG concentration 27 nM): 11.36 pmol/mg
- S1R + S2R Binding, Specific Binding (S1R + S2R; measured [3H]-DTG concentration 92 nM): 18.55 pmol/mg
- S1R + S2R Binding, Specific Binding (S1R + S2R; measured [3H]-DTG concentration 310 nM): 20.14 pmol/mg

SMILES: CN(C)CCc1c[nH]c2ccccc12 [Dimethyltryptamine, N,N-dimethyltryptamine]
- Ki (sigma-1 receptor (S1R); [3]): 14700 nM
- Ki (sigma-2 receptor (S2R); [3]): 21700 nM
- response in a behavioral assay measuring motor coordination (S1R knockout mice): failed to respond

SMILES: CN1CCN(CCc2ccc(Cl)c(Cl)c2)CC1 [BD1063]
- Ki (sigma-1 receptor (S1R); [1]): 9.2 nM
- Ki (sigma-2 receptor (S2R); [1]): 449 nM
